Test results: patent US20230322846A9, “NEUROACTIVE STEROIDS AND THEIR METHODS OF USE” (SAGE THERAPEUTICS, INC., priority 2018, published 2023)

Biological target: [35S]-TBPS binding, rat brain cortical membranes
Experiment: Steroid inhibition of [35S]-TBPS binding
Conditions: 3 nM [35S]-TBPS, in the presence of 5 mM GABA
In short: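 In the presence of […], compounds (DMSO 0.5% final) competed with 3 nM [35S]-TBPS for Sprague-Dawley rat cortical membranes, pH 7.4 phosphate buffer, 90 min, room temperature. Filtration and scintillation counting; specific binding defined by […]; IC50 and maximal inhibition fitted per experiment, averaged as mean ± SEM.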

SMILES | IC50
C[C@H](NC(=O)c1ccccn1)[C@H]1CC[C@H]2[C@@H]3CC[C@@H]4C[C@](C)(O)CC[C@@H]4[C@H]3CC[C@]12C [Example 101] | 1000 to 10000 nM
C[C@H](NC(=O)c1ccccc1F)[C@H]1CC[C@H]2[C@@H]3CC[C@@H]4C[C@](C)(O)CC[C@@H]4[C@H]3CC[C@]12C [Example 102] | 1000 to 10000 nM
C[C@@H](NC(=O)c1ccccc1F)[C@H]1CC[C@H]2[C@@H]3CC[C@@H]4C[C@](C)(O)CC[C@@H]4[C@H]3CC[C@]12C [Example 103] | < 100 nM
COc1cccc(C(=O)N[C@H](C)[C@H]2CC[C@H]3[C@@H]4CC[C@@H]5C[C@](C)(O)CC[C@@H]5[C@H]4CC[C@]23C)c1 [Example 104] | < 100 nM
COc1cccc(C(=O)N[C@@H](C)[C@H]2CC[C@H]3[C@@H]4CC[C@@H]5C[C@](C)(O)CC[C@@H]5[C@H]4CC[C@]23C)c1 [Example 105] | 1000 to 10000 nM
COc1ccc(C(=O)N[C@H](C)[C@H]2CC[C@H]3[C@@H]4CC[C@@H]5C[C@](C)(O)CC[C@@H]5[C@H]4CC[C@]23C)cc1 [Example 106] | 100 to 1000 nM
COc1ccc(C(=O)N[C@@H](C)[C@H]2CC[C@H]3[C@@H]4CC[C@@H]5C[C@](C)(O)CC[C@@H]5[C@H]4CC[C@]23C)cc1 [Example 107] | 1000 to 10000 nM
C[C@@H](NC(=O)c1ccc(C#N)cc1)[C@H]1CC[C@H]2[C@@H]3CC[C@@H]4C[C@](C)(O)CC[C@@H]4[C@H]3CC[C@]12C [Example 108] | 100 to 1000 nM
C[C@@H](NC(=O)c1cccc(C#N)c1)[C@H]1CC[C@H]2[C@@H]3CC[C@@H]4C[C@](C)(O)CC[C@@H]4[C@H]3CC[C@]12C [Example 109] | < 100 nM
C[C@H](NC(=O)c1cccc(C#N)c1)[C@H]1CC[C@H]2[C@@H]3CC[C@@H]4C[C@](C)(O)CC[C@@H]4[C@H]3CC[C@]12C [Example 110] | 1000 to 10000 nM
COC[C@@]1(O)CC[C@H]2[C@H](CC[C@@H]3[C@@H]2CC[C@]2(C)[C@@H]([C@@H](C)NC(=O)c4ccc(OC(F)(F)F)cc4)CC[C@@H]32)C1 [Example 111] | < 100 nM
COC[C@@]1(O)CC[C@H]2[C@H](CC[C@@H]3[C@@H]2CC[C@]2(C)[C@@H]([C@H](C)NC(=O)c4ccc(OC(F)(F)F)cc4)CC[C@@H]32)C1 [Example 112] | 100 to 1000 nM
COC[C@@]1(O)CC[C@H]2[C@H](CC[C@@H]3[C@@H]2CC[C@]2(C)[C@@H]([C@@H](C)NC(=O)c4ccc(F)cc4)CC[C@@H]32)C1 [Example 113] | 100 to 1000 nM
COC[C@@]1(O)CC[C@H]2[C@H](CC[C@@H]3[C@@H]2CC[C@]2(C)[C@@H]([C@H](C)NC(=O)c4ccc(F)cc4)CC[C@@H]32)C1 [Example 114] | 1000 to 10000 nM
C[C@H](NC(=O)c1ccc(C#N)cc1)[C@H]1CC[C@H]2[C@@H]3CC[C@@H]4C[C@](C)(O)CC[C@@H]4[C@H]3CC[C@]12C [Example 115] | 1000 to 10000 nM
C[C@@H](NC(=O)c1ccc(F)cc1)[C@H]1CC[C@H]2[C@@H]3CC[C@@H]4C[C@](C)(O)CC[C@@H]4[C@H]3CC[C@]12C [Example 116] | < 100 nM
C[C@H](NC(=O)c1ccc(F)cc1)[C@H]1CC[C@H]2[C@@H]3CC[C@@H]4C[C@](C)(O)CC[C@@H]4[C@H]3CC[C@]12C [Example 117] | 1000 to 10000 nM
COC[C@@]1(O)CC[C@H]2[C@H](CC[C@@H]3[C@@H]2CC[C@]2(C)[C@@H]([C@@H](C)NC(=O)c4cc(C)nn4C)CC[C@@H]32)C1 [Example 118] | 100 to 1000 nM
COC[C@@]1(O)CC[C@H]2[C@H](CC[C@@H]3[C@@H]2CC[C@]2(C)[C@@H]([C@H](C)NC(=O)c4cc(C)nn4C)CC[C@@H]32)C1 [Example 119] | 1000 to 10000 nM

SMILES | IC50
C[C@H](NC(=O)c1ccc(C#N)cn1)[C@H]1CC[C@H]2[C@@H]3CC[C@@H]4C[C@](C)(O)CC[C@@H]4[C@H]3CC[C@]12C [Example 121] | 1000 to 10000 nM
C[C@H](NC(=O)c1ccc(F)cn1)[C@H]1CC[C@H]2[C@@H]3CC[C@@H]4C[C@](C)(O)CC[C@@H]4[C@H]3CC[C@]12C [Example 124] | 100 to 1000 nM
COC[C@@]1(O)CC[C@H]2[C@H](CC[C@@H]3[C@@H]2CC[C@]2(C)[C@@H]([C@@H](C)NC(=O)c4ccc(F)cn4)CC[C@@H]32)C1 [Example 125] | 100 to 1000 nM
COC[C@@]1(O)CC[C@H]2[C@H](CC[C@@H]3[C@@H]2CC[C@]2(C)[C@@H]([C@H](C)NC(=O)c4ccc(F)cn4)CC[C@@H]32)C1 [Example 126] | 1000 to 10000 nM
C[C@@H](NC(=O)c1ccc(F)cn1)[C@H]1CC[C@H]2[C@@H]3CC[C@@H]4C[C@](C)(O)CC[C@@H]4[C@H]3CC[C@]12C [Example 127] | 100 to 1000 nM
COC[C@@]1(O)CC[C@H]2[C@H](CC[C@@H]3[C@@H]2CC[C@]2(C)[C@@H]([C@@H](C)NC(=O)c4ccc(OC(F)(F)F)cn4)CC[C@@H]32)C1 [Example 128] | 100 to 1000 nM
COC[C@@]1(O)CC[C@H]2[C@H](CC[C@@H]3[C@@H]2CC[C@]2(C)[C@@H]([C@H](C)NC(=O)c4ccc(OC(F)(F)F)cn4)CC[C@@H]32)C1 [Example 129] | 100 to 1000 nM
C[C@@H](NC(=O)c1ccc(C#N)cc1F)[C@H]1CC[C@H]2[C@@H]3CC[C@@H]4C[C@](C)(O)CC[C@@H]4[C@H]3CC[C@]12C [Example 130] | < 100 nM
COC[C@@]1(O)CC[C@H]2[C@H](CC[C@@H]3[C@@H]2CC[C@]2(C)[C@@H]([C@@H](C)NC(=O)c4ccc(C#N)cc4F)CC[C@@H]32)C1 [Example 131] | < 100 nM
CCOC[C@@]1(O)CC[C@H]2[C@H](CC[C@@H]3[C@@H]2CC[C@]2(C)[C@@H]([C@@H](C)NC(=O)c4ccc(C#N)cc4F)CC[C@@H]32)C1 [Example 133] | < 100 nM
COC[C@@]1(O)CC[C@H]2[C@H](CC[C@@H]3[C@@H]2CC[C@]2(C)[C@@H]([C@@H](C)NC(=O)c4ccc(F)cc4F)CC[C@@H]32)C1 [Example 134] | < 100 nM
COC[C@@]1(O)CC[C@H]2[C@H](CC[C@@H]3[C@@H]2CC[C@]2(C)[C@@H]([C@H](C)NC(=O)c4ccc(F)cc4F)CC[C@@H]32)C1 [Example 135] | 1000 to 10000 nM
COC[C@@]1(O)CC[C@H]2[C@H](CC[C@@H]3[C@@H]2CC[C@]2(C)[C@@H]([C@@H](C)n4cc(C#N)cn4)CC[C@@H]32)C1 [Example 150, 1-((R)-1-((3R, 5R, 8R, 9R, 10S, 135, 145, 17S)-3-hydroxy-3-(methoxymethyl)-13-methylhexadecahydro-1H-cyclopenta[a]phenanthren-17-yl)ethyl)-1H-pyrazole-4-carbonitrile] | < 100 nM
COC[C@@]1(O)CC[C@H]2[C@H](CC[C@@H]3[C@@H]2CC[C@]2(C)[C@@H]([C@H](C)n4cc(C#N)cn4)CC[C@@H]32)C1 [Example 151, 1-((S)-1-((3R,5R,8R,9R,10S,13S,14S,17S)-3-hydroxy-3-(methoxymethyl)-13-methylhexadecahydro-1H-cyclopenta[a]phenanthren-17-yl)ethyl)-1H-pyrazole-4-carbonitrile] | 1000 to 10000 nM
COC[C@@]1(O)CC[C@H]2[C@H](CC[C@@H]3[C@@H]2CC[C@]2(C)[C@@H]([C@@H](C)n4ncc(C#N)c4N)CC[C@@H]32)C1 [Example 152, 5-amino-1-((R)-1-((3R,5R,8R,9R,10S,13S,14S,17S)-3-hydroxy-3-(methoxymethyl)-13-methylhexadecahydro-1H-cyclopenta[a]phenanthren-17-yl)ethyl)-1H-pyrazole-4-carbonitrile] | 1000 to 10000 nM
COC[C@@]1(O)CC[C@H]2[C@H](CC[C@@H]3[C@@H]2CC[C@]2(C)[C@@H]([C@H](C)n4ncc(C#N)c4N)CC[C@@H]32)C1 [Example 153, 5-amino-1-((S)-1-((3R,5R,8R,9R,10S,13S,14S,17S)-3-hydroxy-3-(methoxymethyl)-13-methylhexadecahydro-1H-cyclopenta[a]phenanthren-17-yl)ethyl)-1H-pyrazole-4-carbonitrile] | 1000 to 10000 nM
C[C@H]([C@H]1CC[C@H]2[C@@H]3CC[C@@H]4C[C@](C)(O)CC[C@@H]4[C@H]3CC[C@]12C)n1ncc(C#N)c1N [Example 154, 5-amino-1-((R)-1-((3R,5R,8R,9R,10S,13S,14S,17S)-3-hydroxy-3,13-dimethylhexadecahydro-1H-cyclopenta[a]phenanthren-17-yl)ethyl)-1H-pyrazole-4-carbonitrile] | 1000 to 10000 nM
C[C@@H]([C@H]1CC[C@H]2[C@@H]3CC[C@@H]4C[C@](C)(O)CC[C@@H]4[C@H]3CC[C@]12C)n1ncc(C#N)c1N [Example 155, 5-amino-1-((S)-1-((3R,5R,8R,9R,10S,13S,14S,17S)-3-hydroxy-3,13-dimethylhexadecahydro-1H-cyclopenta[a]phenanthren-17-yl)ethyl)-1H-pyrazole-4-carbonitrile] | 1000 to 10000 nM
C[C@H]([C@H]1CC[C@H]2[C@@H]3CC[C@@H]4C[C@](C)(O)CC[C@@H]4[C@H]3CC[C@]12C)n1cc(C#N)cn1 [Example 156, 1-((R)-1-((3R,5R,8R,9R,10S,13S,14S,17S)-3-hydroxy-3,13-dimethylhexadecahydro-1H-cyclopenta[a]phenanthren-17-yl)ethyl)-1H-pyrazole-4-carbonitrile] | < 100 nM
